For assay [1] the following is noted: intravenous administration; cited from earlier work.
Assay [2] is described as follows: Case report Example 5: blood pressure in diabetic hypertensive. Particulars: lisinopril 20 mg twice a day, over 3 days; before 188/92. The assay is classed as in vivo, human. As for the experimental part: The patient with diabetes requiring insulin therapy also has a long history of elevated blood pressure. The blood pressure was previously controlled using lisinopril 20 mg. daily. […] The dose of lisinopril was lowered to 20 mg once a day.

As for `N[C@@H](CCC(=O)N[C@@H](CS)C(=O)NCC(=O)O)C(=O)O` [reduced glutathione, gamma-glutamyl-cysteinyl-glycine], the “blood flow in peripheral vascular disease” value in assay [1] is given as “benefit in improving blood flow”.
As for `NCCCC[C@H](N[C@@H](CCc1ccccc1)C(=O)O)C(=O)N1CCC[C@H]1C(=O)O` [lisinopril], the blood pressure in assay [2] is on record as 145/92.

(Values after patent US8679530B2 (Your Energy Systems, LLC, priority 2004, dated 2014).)
